Experimental data taken from ChEMBL document CHEMBL1123817, “X-ray crystal structure of the opioid ligand naltrexonazine” (J Med Chem, 1987).

target: Opioid receptor (Rattus norvegicus, UniProt P33533+P34975+P33535); test: Inhibition of [3H]DAMPGO binding was determined using standard binding assay in rat brain homogenates against opioid receptor; assay type: tissue-based

**Q.** How did the IC50 turn out when `Oc1ccc2c3c1O[C@H]1/C(=N/N=C4\CC[C@@]5(O)[C@H]6Cc7ccc(O)c8c7[C@@]5(CCN6CC5CC5)[C@H]4O8)CC[C@@]4(O)[C@@H](C2)N(CC2CC2)CC[C@]314` (stereo in doubt; syn) [NALTREXONAZINE] was run?
**A.** 0.47 nM

**Q.** With `Oc1ccc2c3c1O[C@H]1/C(=N/N=C4\CC[C@@]5(O)[C@H]6Cc7ccc(O)c8c7[C@@]5(CCN6CC5CC5)[C@H]4O8)CC[C@@]4(O)[C@@H](C2)N(CC2CC2)CC[C@]314` (mixture of isomers) [NALTREXONAZINE] as the compound, how does the IC50 read?
**A.** 0.35 nM

**Q.** For `Oc1ccc2c3c1O[C@H]1/C(=N/N=C4\CC[C@@]5(O)[C@H]6Cc7ccc(O)c8c7[C@@]5(CCN6CC5CC5)[C@H]4O8)CC[C@@]4(O)[C@@H](C2)N(CC2CC2)CC[C@]314` (stereo in doubt; anti) [NALTREXONAZINE], which IC50 is on record?
**A.** 0.45 nM
